In patent US7176224B2, “Oxazolyl-aryloxyacetic acid derivatives and their use as PPAR agonists” (Eli Lilly and Company, priority 2000, dated 2007):

Legend:
Hu apoAI transgenic mice = assay: Evaluation of triglyceride and cholesterol levels in hu apoAI transgenic mice; format: in vivo
Description: Five to six week old male mice, transgenic for human apoAI [C57B1/6-tgn(apoa1) 1rub, Jackson Laboratory, Bar Harbor, Me.] were housed five per cage (10″×20″8″ with aspen chip bedding) with food (Purina 5001) and water available at all times. After an acclimation period of 2 weeks, animals were individually identified by ear notches, weighed, and assigned to groups based on body weight. Beginning the following morning, mice were dosed daily by oral gavage for 7 days using a 20 gauge, 1½″ curved disposable feeding needle (Popper & Sons). Treatments were test compounds (30 mg/kg), a positive control (fenofibrate, 100 mg/kg) or vehicle [1% carboxymethylcellulose (w/v)/0.25% Tween80 (w/v); 0.2 ml/mouse]. Prior to termination on day 7, mice were weighed and dosed. Three hours after dosing, animals were anesthetized by inhalation of isoflurane (2–4%; Abbott Laboratories, Chicago, Ill.) and blood obtained via cardiac puncture (0.7–1.0 ml). Whole blood was transferred to serum separator tubes (Vacutainer SST), chilled on ice, and permitted to clot. Serum was obtained after centrifugation at 4° C. and frozen until analysis for triglycerides, total cholesterol, compound levels, and serum lipoprotein profile by fast protein liquid chromatography (FPLC) coupled to an inline detection system. After sacrifice by cervical dislocation, the liver, heart and epididymal fat pads were excised and weighed.
The animals dosed with vehicle had average triglycerides values of 60–80 mg/dl, which were reduced by the positive control fenofibrate (33–58 mg/dl with a mean reduction of 37%). The animals dosed with vehicle had average total serum cholesterol values of 140–180 mg/dl, which were increased by fenofibrate (190–280 mg/dl, with a mean elevation of 41%). […] increased the amount of HDLc (68–96 v-sec with a mean percent increase of 48%).
Glucose was measured colorimetrically using commercially purchased reagents (Sigma #315-500). According to the manufacturers, the procedures were modified from published work (McGowan, M. W., Artiss, J. D., Strandbergh, D. R. & Zak, B. Clin Chem, 20:470–5 (1974) and Keston, A. Specific colorimetric enzymatic analytical reagents for glucose. Abstract of papers 129th Meeting ACS, 31C (1956).); and depend on the release of a mole of hydrogen peroxide for each mole of analyte, coupled with a color reaction first described by Trinder (Trinder, P. Determination of glucose in blood using glucose oxidase with an alternative oxygen acceptor. Ann Clin Biochem, 6:24 (1969)). The absorbance of the dye produced is linearly related to the analyte in the sample. The assays were further modified in our laboratory for use in a 96 well format. Standards (Sigma #339-11, Sigma #16-11, and Sigma #CC0534 for glucose, triglycerides and total cholesterol, respectively), quality control plasma (Sigma # A2034), and samples (2 or 5 μl/well) were measured in duplicate using 200 μl of reagent. An additional aliquot of sample, pipetted to a third well and diluted in 200 μl water, provided a blank for each specimen. Plates were incubated at room temperature (18, 15, and 10 minutes for glucose, triglycerides and total cholesterol, respectively) on a plate shaker (DPC Micormix 5) and absorbance read at 500 nm (glucose and total cholesterol) or 540 nm (triglycerides) on a plate reader (Wallac Victor 1420). Sample absorbances were compared to a standard curve (100–800, 10–500, and 100–400 mg/dl for glucose, triglycerides and total cholesterol, respectively). Values for the quality control sample were always within the expected range and the coefficient of variation for samples was below 10%. All samples from an experiment were assayed at the same time to minimize inter-assay variability.
Serum lipoproteins were separated and cholesterol quantitated with an in-line detection system. Sample was applied to a Superose® 6 HR 10/30 size exclusion column (Amersham Pharmacia Biotech) and eluted with phosphate buffered saline-EDTA at 0.5 ml/min. […]

huPPARα [1] = target: T1, huPPARα (Homo sapiens, UniProt Q07869); assay: DNA-dependent binding (ABCD binding), SPA, radioligand displacement; details: tritium-labeled PPARα agonist radioligand
T1 sequence (Q07869 1-468): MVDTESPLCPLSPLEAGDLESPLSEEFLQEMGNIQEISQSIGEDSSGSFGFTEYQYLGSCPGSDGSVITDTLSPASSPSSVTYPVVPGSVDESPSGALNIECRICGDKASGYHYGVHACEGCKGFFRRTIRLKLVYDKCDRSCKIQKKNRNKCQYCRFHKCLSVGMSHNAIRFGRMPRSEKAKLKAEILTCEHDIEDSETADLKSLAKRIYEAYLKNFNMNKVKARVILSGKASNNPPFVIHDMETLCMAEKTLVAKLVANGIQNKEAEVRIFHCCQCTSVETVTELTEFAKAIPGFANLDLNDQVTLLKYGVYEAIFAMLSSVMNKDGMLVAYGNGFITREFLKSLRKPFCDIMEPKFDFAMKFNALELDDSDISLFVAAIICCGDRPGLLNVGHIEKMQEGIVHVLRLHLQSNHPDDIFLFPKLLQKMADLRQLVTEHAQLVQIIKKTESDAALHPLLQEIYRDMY
T1 sequence (P19793 1-462 partner): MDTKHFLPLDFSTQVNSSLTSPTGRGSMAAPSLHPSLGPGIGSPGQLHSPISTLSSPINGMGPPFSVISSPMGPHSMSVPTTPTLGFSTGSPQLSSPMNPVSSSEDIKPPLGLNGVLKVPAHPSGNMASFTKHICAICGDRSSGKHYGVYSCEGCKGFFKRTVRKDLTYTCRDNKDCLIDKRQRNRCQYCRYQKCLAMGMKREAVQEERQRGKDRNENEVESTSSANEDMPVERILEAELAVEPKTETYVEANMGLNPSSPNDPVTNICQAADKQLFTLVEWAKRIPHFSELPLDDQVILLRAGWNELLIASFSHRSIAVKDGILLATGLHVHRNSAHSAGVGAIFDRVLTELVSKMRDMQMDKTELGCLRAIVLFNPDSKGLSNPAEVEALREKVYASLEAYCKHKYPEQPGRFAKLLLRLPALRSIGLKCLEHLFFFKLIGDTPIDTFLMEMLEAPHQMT
Description: (§1) […] binding (ABCD binding) was carried out using SPA technology with PPAR receptors. Tritium-labeled PPARα and PPARγ agonists were used as radioligands for generating displacement curves and IC50 values with compounds of the invention. Cotransfection assays were carried out in CV-1 cells. The reporter plasmid contained an acylCoA oxidase (AOX) PPRE and TK promoter upstream of the luciferase reporter cDNA. Appropriate PPARs and RXRα were constitutively expressed using plasmids containing the CMV promoter. […] In order to eliminate such interference, a GAL4 chimeric system was used in which the DNA binding domain of the transfected PPAR was replaced by that of GAL4, and the GAL4 response element was utilized in place of the AOX PPRE. Cotransfection efficacy was determined relative to PPARα agonist and PPARβ agonist reference molecules. Efficacies were determined by computer fit to a concentration-response curve, or in some cases at a single high concentration of agonist (10 μM). For binding or cotransfection studies with receptors other than PPARs, similar assays were carried out using appropriate ligands, receptors, reporter constructs, etc., for that particular receptor.
(§2) These studies were carried out to evaluate the ability of compounds of the invention to bind to and/or activate various nuclear transcription factors, particularly huPPARα (“hu” indicates “human”) and huPPARγ. These studies provide in vitro data concerning efficacy and selectivity of compounds of the invention. Furthermore, binding and cotransfection data for compounds of the invention were compared with corresponding data for marketed compounds that act on either huPPARα or huPPARγ.

huPPARγ [2] = target: T2, huPPARγ (Homo sapiens, UniProt P37231); assay: as above; details: tritium-labeled PPARγ agonist radioligand
T2 sequence (P37231 1-505): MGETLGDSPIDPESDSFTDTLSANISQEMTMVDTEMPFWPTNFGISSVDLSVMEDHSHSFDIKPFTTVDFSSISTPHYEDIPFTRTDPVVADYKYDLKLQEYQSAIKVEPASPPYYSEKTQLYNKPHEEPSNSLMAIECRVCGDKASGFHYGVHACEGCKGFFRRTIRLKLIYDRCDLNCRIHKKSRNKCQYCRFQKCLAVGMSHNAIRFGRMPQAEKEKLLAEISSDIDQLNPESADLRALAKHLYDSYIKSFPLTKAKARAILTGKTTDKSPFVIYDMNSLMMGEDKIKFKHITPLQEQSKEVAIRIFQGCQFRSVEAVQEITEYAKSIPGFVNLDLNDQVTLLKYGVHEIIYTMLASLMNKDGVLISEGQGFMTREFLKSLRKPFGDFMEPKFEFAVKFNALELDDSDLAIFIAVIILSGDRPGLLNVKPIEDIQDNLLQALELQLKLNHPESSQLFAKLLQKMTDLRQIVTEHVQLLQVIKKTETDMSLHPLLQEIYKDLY
T2 sequence (P19793 1-462 partner): T1 sequence (P19793 1-462 partner)
Description: as §1, §2

huPPARα [3] = assay: Cotransfection assay in CV-1 cells, luciferase reporter; format: cell-based, human; details: GAL4 chimeric system, relative to PPARα agonist reference molecule
Description: […] binding (ABCD binding) was carried out using SPA technology with PPAR receptors. Tritium-labeled PPARα and PPARγ agonists were used as radioligands for generating displacement curves and IC50 values with compounds of the invention. Cotransfection assays were carried out in CV-1 cells. The reporter plasmid contained an acylCoA oxidase (AOX) PPRE and TK promoter upstream of the luciferase reporter cDNA. Appropriate PPARs and RXRα were constitutively expressed using plasmids containing the CMV promoter. For PPARα and […], interference by endogenous […] in CV-1 cells was an issue. In order to eliminate such interference, a GAL4 chimeric system was used in which the DNA binding domain of the transfected PPAR was replaced by that of GAL4, and the GAL4 response element was utilized in place of the AOX PPRE. Cotransfection efficacy was determined relative to PPARα agonist and […] reference molecules. Efficacies were determined by computer fit to a concentration-response curve, or in some cases at a single high concentration of agonist (10 μM). For binding or cotransfection studies with receptors other than PPARs, similar assays were carried out using appropriate ligands, receptors, reporter constructs, etc., for that particular receptor.
as §2

huPPARγ [4] = assay: as above; format: cell-based, human; details: GAL4 chimeric system, relative to agonist reference molecule
Description: as §1, with “Tritium-labeled PPARα and PPARγ agonists were used as radioligands for generating displacement curves and IC50 values with compounds of the invention.” left out, “Cotransfection efficacy was determined relative to PPARα agonist and PPARβ agonist reference molecules.” left out
as §2

[5] = 100 mg/kg oral gavage daily for 7 days, versus vehicle

CC(C)OC(=O)C(C)(C)Oc1ccc(C(=O)c2ccc(Cl)cc2)cc1 [fenofibrate]
high density lipoprotein cholesterol (HDLc) peak area (Hu apoAI transgenic mice; 100 mg/kg oral gavage daily for 7 days, pooled sera, FPLC, vehicle 47 to 62 v-sec): 68–96 v-sec
average triglycerides values (Hu apoAI transgenic mice; 100 mg/kg oral gavage daily for 7 days, serum, vehicle 60–80 mg/dl): 33 to 58 mg/dL
average total serum cholesterol values (Hu apoAI transgenic mice; 100 mg/kg oral gavage daily for 7 days, vehicle 140–180 mg/dl): 190 to 280 mg/dL
mean elevation of total serum cholesterol (Hu apoAI transgenic mice; [5]): 41%
mean percent increase of HDLc (Hu apoAI transgenic mice; [5]): 48%
mean reduction of triglycerides (Hu apoAI transgenic mice; [5]): 37%

Cc1oc(-c2cccc(-c3ccsc3)c2)nc1CCOc1ccc(CC(C)(Oc2ccc(C(C)(C)C)cc2)C(=O)O)cc1 (centres unmarked) [Example 19, 2-Methyl-3-(4-{2-[5-methyl-2-(3-thiophen-3-yl-phenyl)-oxazol-4-yl]-ethoxy}-phenyl)-2-(4-tert-butylphenoxy)-propionic acid]
% HDLc Increase (Hu apoAI transgenic mice; 30 mg/kg oral gavage daily for 7 days, serum HDLc FPLC area under the curve, over mice receiving vehicle): 85.3%

COc1cc(CC(C)(Oc2ccccc2)C(=O)O)ccc1OCCc1nc(-c2cccc(-c3ccccc3)c2)oc1C (centres unmarked) [Example 8, 3-{4-[2-(2-Biphenyl-3-yl-5-methyloxazol-4-yl)ethoxy]-3-methoxyphenyl}-2-methyl-2-phenoxypropionic acid]
IC50 (huPPARα [1]): 605 nM
IC50 (huPPARγ [2]): 41 nM
huPPARα CTF Efficacy (huPPARα [3]): 45%
huPPARγ CTF Efficacy (huPPARγ [4]): 91%
